Values of other authors, collected in patent US20060040003A1, “Dietary supplement for supressing appetite, enhancing and extending satiety, improving glycemic control, and stimulant free” (priority 2004, published 2006).

Target: T1, plasma albumin (Homo sapiens, UniProt P02768)
T1 construct: host or cells: blood plasma (circulation)
T1 sequence (P02768 25-609): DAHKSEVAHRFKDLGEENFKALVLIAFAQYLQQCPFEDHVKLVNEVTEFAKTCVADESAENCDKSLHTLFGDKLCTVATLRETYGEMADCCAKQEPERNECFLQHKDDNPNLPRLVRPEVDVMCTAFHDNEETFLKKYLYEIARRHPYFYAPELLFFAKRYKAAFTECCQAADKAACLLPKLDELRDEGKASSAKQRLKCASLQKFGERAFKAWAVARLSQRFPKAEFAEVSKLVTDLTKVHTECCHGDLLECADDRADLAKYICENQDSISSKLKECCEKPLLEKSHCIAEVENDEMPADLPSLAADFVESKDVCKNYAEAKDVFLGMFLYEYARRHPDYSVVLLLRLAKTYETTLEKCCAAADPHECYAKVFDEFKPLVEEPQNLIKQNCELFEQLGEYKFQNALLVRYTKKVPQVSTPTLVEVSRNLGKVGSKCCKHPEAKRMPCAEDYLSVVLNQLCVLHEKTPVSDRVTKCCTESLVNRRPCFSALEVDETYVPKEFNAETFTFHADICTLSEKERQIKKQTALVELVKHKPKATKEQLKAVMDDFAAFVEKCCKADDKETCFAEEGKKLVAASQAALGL

In the case of `N[C@@H](Cc1c[nH]c2ccccc12)C(=O)O` [tryptophane], the “circulating in the blood as free tryptophane” value is given as 20%.
